Measured values taken from patent publication EP0449955B1, “SYNTHETIC HIV-LIKE PEPTIDES, THEIR COMPOSITIONS AND USES” (CLARITY TECHNOLOGIES INCORPORATED, priority 1988, dated 1996).

System: antibodies to HIV-2
Experiment: EIA of HIV-2 peptide-BSA conjugates with macaque sera
Assay type: binding
Details: macaque sera containing or not containing antibodies to HIV-2, Figure 7
Protocol: The synthetic peptides of Figures 1-8 were reduced with 10mM DTT, or with immobilized DTT (Reductacryl, Calbiochem, San Diego, California, U.S.A., 10 mg Reductacryl per mg peptide) overnight at 4°C, pH8 in 10mM borate or other buffers depending upon peptide solubility, with gentle mixing. KLH was dissolved at a concentration of 10-30 mg/ml in 10 mM phosphate buffer pH 7.2., and BSA was dissolved at a concentration of 20-80 mg/ml for treatment with heterobifunctional linkers MBS (m-Maleimidobenzoyl-N-hydroxysuccinimide ester), SPDP [N-Succinimidyl 3-(2 pyridyldithio)propionate], or Sulfo-SMCC [Sulfo-Succinimidyl 4(N-maleimidomethyl)-cyclohexane-1-carboxylate]. The heterobifunctional linkers were added to the protein solutions in a molar excess of linker to BSA of 100, or of linker to KLH of 1000. MBS was dissolved in DMF at 10mg/ml, SPDP was dissolved in absolute ethanol at 10mg/ml and each of these was added dropwise with mixing into the protein solution, whereas the Sulfo-SMCC dry powder was dissolved into the protein solution. Each protein-linker mixture was reacted at room temperature for 15 minutes to 1 hour and then free linker was separated from BSA-linker or KLH-linker by gel chromatography with Sephadex G25 using 50mM phosphate, pH 6 for KLH-MBS, 10mM acetate, 100 mM Nacl, pH 4.6 for BSA-SPDP, or 100 mM phosphate, 1 mM EDTA, pH 6.5 for BSA-SMCC. The reduced peptides were separated from DTT by Sephadex G10 column chromatography when soluble DTT was used, or by centrifugation followed by filtration through a 0.22 micron filter when Reductacryl was used. Reduced peptides were combined with linker treated KLH or BSA in molar ratios of 100-1000 peptide/KLH-MBS, 1-50 peptide/BSA-SMCC, and 0.1-10 peptide/BSA-SPDP. Each reduced peptide was added to the linker-treated protein with mixing, overlayed with N₂, and then mixed gently at room temperature for one hour, and then overnight at 4°C. The SMCC-BSA conjugates were further treated with a 1 mM final concentration of mercaptoethylamine for 4 hours, and then dialyzed overnight against 100 volumes of buffer (20mM phosphate, 1 mM EDTA, 0.05% sodium azide, pH 6.5) at 4°C. All other conjugates were adjusted to a final concentration of sodium azide of 0.05%. Optimal molar ratios of peptide/protein for the conjugates were determined by solubility and antigenicity (as evaluated by EIA).
The free peptides or peptide-protein conjugates of Figures 1-13 were initially screened for immunoreactivity by coating each well of polystyrene microtiter EIA plates (Costar, Cambridge, Massachusetts, U.S.A.) with 0.2 ml amounts of concentrations of 5-50 micrograms/ml peptide in Tris buffer, 10 mM, pH 8.0, at 4°C overnight. […]

ARLNSWGCAFRQVCHGC [2S25]
discrimination of positive from negative samples: most favorable performances
